Reference: patent US9303076B2, “Cell-penetrating peptides and uses thereof” (Hoffmann-La Roche Inc., priority 2010, dated 2016)

Experiments:
[1] = tested on: MCF-7 human breast cancer cells; assay: cell viability/apoptosis after 24 h exposure to pro-apoptotic peptides and CPP fusions; assay type: cell-based; settings: MCF-7 cells, various concentrations
Method: (§1) MCF-7 human breast cancer cells were incubated for 24 h in the presence of various concentrations of NRTN (squares), Nur (circles), and NurNRTN (triangles) peptides. The respective amino acid sequences are given in the bottom panel. The experimental approach for assessing cell viability (and thus induction of apoptosis) was the same as in FIG. 3.
as §1, with “4E-BP1 (circles), TAT4E-BP1” for “NRTN”, “(squares),” for “(squares), Nur (circles),”, “NRTN4E-BP1” for “NurNRTN”, “peptides (top panel). […]” for “peptides.”
Luminescence was analyzed in an InfiniteF200 luminescence reader.
Then, the cells were treated with a luminogenic peptide substrate in order to measure dead-cell protease activity, which is released from cells that have lost membrane integrity. […] The luminescence of this assay therefore represents dead cells. The 96 well plates were then analyzed in an InfiniteF200 luminescence reader.
Despite its proven ability to convert BCL-2 into a pro-apoptotic molecule, addition of the latter peptide (i.e. “Nor/Nur”; SEQ ID NO: 72) to cancer cells, even in high concentrations, is not sufficient to induce apoptosis, as the cellular target protein is located in the cytoplasm, but the peptide per se cannot effectively penetrate through the cell membrane to reach the target. In brief, MCF-7 breast cancer cells were incubated in the presence of this peptide for 24 h.
(§2) Subsequently, it was evaluated whether the NurNRTN fusion peptide is capable of penetrating cellular membranes and thereby induces pro-apoptotic activity within cells. MCF-7 human breast cancer cells were used as a model. The experimental approach was as described above (cf. Example 1). […] This effect was dose dependent: cytotoxicity increased with increasing concentrations of peptide.
as §2, with “NRTN4E-BP1” for “NurNRTN”

recombinant BCL2 = target: T1, recombinant BCL2 (Homo sapiens, UniProt P10415); assay: BCL2 binding to bead-immobilized peptides; settings: iodoacetyl beads, elution buffer pH 2.8, protein stain
T1 construct: purchased Calbiochem/Merck, Darmstadt, Germany
Method: In order to determine whether the BCL2 binding properties of the Nur77-derived peptide are maintained in the NurNRTN fusion peptide, the respective NurNRTN and NRTN peptides were coupled to iodoacetyl beads (Pierce Biotechnology, Inc., Rockford, Ill., USA). The beads were incubated with recombinant BCL2 (Calbiochem/Merck, Darmstadt, Germany) and washed with PBS and 0.5 M NaCl, 0.025 NaN3, 0.05% Tween20 to remove unbound protein. Specific binding of BCL2 to the immobilized NurNTRN fusion peptide was determined by eluting bound […] from the beads with elution buffer (pH 2.8), transfer of the eluted fraction to nitrocellulose (Invitrogen Corporation, Carlsbad, Calif., USA), and protein detection by means of the MemCode Reversible Protein Stain Kit (Pierce Biotechnology, Inc., Rockford, Ill., USA).

T1 sequence (P10415 whole entry): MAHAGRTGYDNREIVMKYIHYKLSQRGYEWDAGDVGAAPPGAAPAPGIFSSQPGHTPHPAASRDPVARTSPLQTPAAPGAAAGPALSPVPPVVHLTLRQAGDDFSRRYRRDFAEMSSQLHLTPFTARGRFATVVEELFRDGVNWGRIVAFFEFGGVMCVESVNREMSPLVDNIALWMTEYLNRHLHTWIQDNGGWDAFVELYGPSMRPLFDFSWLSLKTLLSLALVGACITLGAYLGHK

In the case of “FSRSLHSLLYDLGLRRLRQRRRLRRERVRA (NurNRTN peptide sequence)”, the “cell viability / induction of apoptosis” value [1] is reported as “remarked cytotoxicity” and the “BCL2 in eluates from peptide-coated beads” value (recombinant BCL2) is reported as “BCL2 can be detected in eluates”.
